Source: ChEMBL document CHEMBL1149689, “Pomiferin, histone deacetylase inhibitor isolated from the fruits of Maclura pomifera” (Bioorg Med Chem Lett, 2007)

Experiments:
in vitro = details: human, hepatocytes
Description: Growth inhibition of human hepatocytes after 21 hrs by MTT assay

PC-3 = assay: cells; format: functional; details: Homo sapiens, PC-3, 21 h
Description: Growth inhibition of human PC3 cells after 21 hrs by MTT assay

LOX IMVI = assay: cells; format: functional; details: Homo sapiens, 21 h
Description: Growth inhibition of human LOX-IMVI cells after 21 hrs by MTT assay

HCT-15 = assay: cells; format: functional; details: Homo sapiens, HCT-15, 21 h
Description: Growth inhibition of human HCT15 cells after 21 hrs by MTT assay

Histone deacetylase = assay: Inhibition of HDAC in HeLa cells; format: cell-based, Homo sapiens
ACHN = assay: cells; format: functional; details: Homo sapiens, 21 h
Description: Growth inhibition of human ACHN cells after 21 hrs by MTT assay

NCI-H23 = assay: cells; format: functional; details: Homo sapiens, NCI-H23, 21 h
Description: Growth inhibition of human NCI-H23 cells after 21 hrs by MTT assay

MDA-MB-231 = assay: cells; format: functional; details: Homo sapiens, MDA-MB-231, 21 h
Description: Growth inhibition of human MDA-MB-231 cells after 21 hrs by MTT assay

Row | GI50 at 21 h (in vitro) | GI50 (PC-3) | GI50 (HCT-15) | IC50 (Histone deacetylase) | GI50 (ACHN) | GI50 (NCI-H23) | GI50 (MDA-MB-231) | SMILES | GI50 (LOX IMVI)
1 | > 500 µM | 12.3 µM | 9.65 µM | 6.53 µM | 12.1 µM | 12 µM | 11.3 µM | CC(C)=CCc1c2c(c3occ(-c4ccc(O)cc4)c(=O)c3c1O)C=CC(C)(C)O2 [OSAJIN] | 11 µM
2 | 123 µM | 3.95 µM | 1.32 µM | 1.05 µM | 3.18 µM | 5.14 µM | 2.92 µM | CC(C)=CCc1c2c(c3occ(-c4ccc(O)c(O)c4)c(=O)c3c1O)C=CC(C)(C)O2 [POMIFERIN] | 3.34 µM
